Experimental data published in patent US20120034613A1, “Apparatus and Method for Testing Relationships Between Gene Expression and Physical Appearance of Skin” (NSE Products, Inc., priority 2010, published 2012).

Test system: EpidermFT™ Skin Model (EFT-400) full thickness skin cultures
Experiment: Affymetrix GeneChip HG U133 Plus 2.0 microarray global gene expression, agent-exposed vs untreated skin cultures
Assay type: cell-based, human
Conditions: Salicin 0.5%, 24 hr
[1] = 219471_at C13orf18 /// LOC728970

Which Direction (215997_s_at CUL4B) does the source give for `OCc1ccccc1O[C@@H]1O[C@H](CO)[C@@H](O)[C@H](O)[C@H]1O` [Salicin, 2-(Hydroxymethyl)phenyl β-D-glucospyranoside] here?
Its Direction is “up”.

And the Fold change (215997_s_at CUL4B)?
The Fold change was 2.138.

What about the Direction (217202_s_at GLUL) of the same molecule?
Its Direction is “up”.

What about the Fold change (217202_s_at GLUL) of the same molecule?
The Fold change was 2.106.

What about the Direction (217739_s_at NAMPT) of the same molecule?
Its Direction is “up”.

What about the Fold change (217739_s_at NAMPT) of the same molecule?
Its Fold change is 2.155.

What about the Direction (218574_s_at LMCD1) of the same molecule?
Its Direction is “up”.

And the Fold change (218574_s_at LMCD1)?
The Fold change was 2.123.

What about the Direction (218665_at FZD4) of the same molecule?
Its Direction is “up”.

And the Fold change (218665_at FZD4)?
The Fold change was 2.078.

And the Direction (218810_at ZC3H12A)?
The Direction was “up”.

What about the Fold change (218810_at ZC3H12A) of the same molecule?
The Fold change was 2.117.

And the Direction (219054_at C5orf23)?
The Direction was “up”.

And the Fold change (219054_at C5orf23)?
Its Fold change is 2.096.

And the Direction (219283_at C1GALT1C1)?
Its Direction is “up”.

What about the Fold change (219283_at C1GALT1C1) of the same molecule?
Its Fold change is 2.107.

What about the Direction (219284_at HSPBAP1) of the same molecule?
Its Direction is “up”.

And the Fold change (219284_at HSPBAP1)?
Its Fold change is 2.08.

What about the Direction [1] of the same molecule?
Its Direction is “up”.

What about the Fold change [1] of the same molecule?
The Fold change was 2.12.

And the Direction (219558_at ATP13A3)?
Its Direction is “up”.

What about the Fold change (219558_at ATP13A3) of the same molecule?
Its Fold change is 2.138.

And the Direction (219774_at CCDC93)?
The Direction was “up”.

And the Fold change (219774_at CCDC93)?
The Fold change was 2.13.

And the Direction (219790_s_at NPR3)?
The Direction was “up”.

And the Fold change (219790_s_at NPR3)?
The Fold change was 2.115.

And the Direction (220253_s_at LRP12)?
Its Direction is “up”.

What about the Fold change (220253_s_at LRP12) of the same molecule?
The Fold change was 2.096.

What about the Direction (221586_s_at E2F5) of the same molecule?
Its Direction is “up”.

What about the Fold change (221586_s_at E2F5) of the same molecule?
Its Fold change is 2.079.

What about the Direction (221881_s_at CLIC4) of the same molecule?
Its Direction is “up”.

What about the Fold change (221881_s_at CLIC4) of the same molecule?
Its Fold change is 2.109.

And the Direction (223758_s_at GTF2H2)?
Its Direction is “up”.

And the Fold change (223758_s_at GTF2H2)?
Its Fold change is 2.138.

What about the Direction (224461_s_at AIFM2) of the same molecule?
The Direction was “up”.

And the Fold change (224461_s_at AIFM2)?
The Fold change was 2.132.

And the Direction (224583_at COTL1)?
Its Direction is “up”.

And the Fold change (224583_at COTL1)?
Its Fold change is 2.077.

And the Direction (224978_s_at USP36)?
The Direction was “up”.

What about the Fold change (224978_s_at USP36) of the same molecule?
The Fold change was 2.122.

And the Direction (225034_at ST3GAL1)?
The Direction was “up”.

And the Fold change (225034_at ST3GAL1)?
Its Fold change is 2.099.

And the Direction (225185_at MRAS)?
The Direction was “up”.

What about the Fold change (225185_at MRAS) of the same molecule?
Its Fold change is 2.155.

And the Direction (225212_at SLC25A25)?
Its Direction is “up”.

And the Fold change (225212_at SLC25A25)?
The Fold change was 2.108.

What about the Direction (225436_at FAM108C1) of the same molecule?
The Direction was “up”.

What about the Fold change (225436_at FAM108C1) of the same molecule?
Its Fold change is 2.142.

What about the Direction (225590_at SH3RF1) of the same molecule?
Its Direction is “up”.

What about the Fold change (225590_at SH3RF1) of the same molecule?
The Fold change was 2.104.

And the Direction (225871_at STEAP2)?
Its Direction is “up”.

What about the Fold change (225871_at STEAP2) of the same molecule?
The Fold change was 2.153.

What about the Direction (226136_at GLIPR1) of the same molecule?
The Direction was “up”.

What about the Fold change (226136_at GLIPR1) of the same molecule?
The Fold change was 2.104.

And the Direction (226142_at GLIPR1)?
The Direction was “up”.

And the Fold change (226142_at GLIPR1)?
The Fold change was 2.129.

And the Direction (226160_at H6PD)?
The Direction was “up”.

What about the Fold change (226160_at H6PD) of the same molecule?
Its Fold change is 2.103.

What about the Direction (226731_at PELO) of the same molecule?
Its Direction is “up”.

And the Fold change (226731_at PELO)?
The Fold change was 2.098.

And the Direction (226800_at EFCAB7)?
The Direction was “up”.

And the Fold change (226800_at EFCAB7)?
Its Fold change is 2.156.

What about the Direction (228082_at ASAM) of the same molecule?
The Direction was “up”.

And the Fold change (228082_at ASAM)?
The Fold change was 2.108.

What about the Direction (228702_at FLJ43663) of the same molecule?
The Direction was “up”.

And the Fold change (228702_at FLJ43663)?
The Fold change was 2.156.

What about the Direction (228949_at GPR177) of the same molecule?
The Direction was “up”.

What about the Fold change (228949_at GPR177) of the same molecule?
Its Fold change is 2.105.

And the Direction (228950_s_at GPR177)?
Its Direction is “up”.

And the Fold change (228950_s_at GPR177)?
The Fold change was 2.126.

And the Direction (229194_at PCGF5)?
Its Direction is “up”.

What about the Fold change (229194_at PCGF5) of the same molecule?
Its Fold change is 2.107.

What about the Direction (229306_at FAM148B) of the same molecule?
Its Direction is “up”.

What about the Fold change (229306_at FAM148B) of the same molecule?
The Fold change was 2.129.

What about the Direction (229414_at PITPNC1) of the same molecule?
Its Direction is “up”.

And the Fold change (229414_at PITPNC1)?
The Fold change was 2.108.

And the Direction (229553_at PGM2L1)?
Its Direction is “up”.

What about the Fold change (229553_at PGM2L1) of the same molecule?
Its Fold change is 2.113.

What about the Direction (229623_at FLJ12993) of the same molecule?
Its Direction is “up”.

And the Fold change (229623_at FLJ12993)?
The Fold change was 2.132.

What about the Direction (230291_s_at NFIB) of the same molecule?
Its Direction is “up”.

What about the Fold change (230291_s_at NFIB) of the same molecule?
Its Fold change is 2.15.

And the Direction (232004_at HNRNPR)?
Its Direction is “up”.

What about the Fold change (232004_at HNRNPR) of the same molecule?
The Fold change was 2.126.

And the Direction (232267_at GPR133)?
Its Direction is “up”.

What about the Fold change (232267_at GPR133) of the same molecule?
Its Fold change is 2.135.

What about the Direction (232311_at B2M) of the same molecule?
Its Direction is “up”.

And the Fold change (232311_at B2M)?
The Fold change was 2.121.

And the Direction (235019_at CPM)?
Its Direction is “up”.

And the Fold change (235019_at CPM)?
The Fold change was 2.117.

And the Direction (235182_at ISM1)?
The Direction was “up”.

What about the Fold change (235182_at ISM1) of the same molecule?
The Fold change was 2.138.

And the Direction (235311_at FKBP14)?
The Direction was “up”.

What about the Fold change (235311_at FKBP14) of the same molecule?
The Fold change was 2.153.

What about the Direction (236154_at QKI) of the same molecule?
The Direction was “up”.

And the Fold change (236154_at QKI)?
Its Fold change is 2.103.

And the Direction (238893_at LOC338758)?
Its Direction is “up”.

What about the Fold change (238893_at LOC338758) of the same molecule?
Its Fold change is 2.075.

What about the Direction (239108_at FAR2) of the same molecule?
Its Direction is “up”.

And the Fold change (239108_at FAR2)?
Its Fold change is 2.081.

What about the Direction (239415_at MAP9) of the same molecule?
The Direction was “up”.

And the Fold change (239415_at MAP9)?
The Fold change was 2.126.

And the Direction (240395_at LOC100128727)?
Its Direction is “up”.

What about the Fold change (240395_at LOC100128727) of the same molecule?
Its Fold change is 2.078.

And the Direction (241986_at BMPER)?
Its Direction is “up”.

What about the Fold change (241986_at BMPER) of the same molecule?
The Fold change was 2.136.

And the Direction (243631_at LOC727815)?
Its Direction is “up”.

What about the Fold change (243631_at LOC727815) of the same molecule?
Its Fold change is 2.087.

What about the Direction (243797_at STK17B) of the same molecule?
The Direction was “up”.

And the Fold change (243797_at STK17B)?
Its Fold change is 2.09.

What about the Direction (244752_at ZNF438) of the same molecule?
The Direction was “up”.

And the Fold change (244752_at ZNF438)?
The Fold change was 2.083.

And the Direction (1553962_s_at RHOB)?
The Direction was “up”.

And the Fold change (1553962_s_at RHOB)?
Its Fold change is 2.094.
